{"source": "patent US11912785B2", "about": "“Peptide compositions for slowing degradation of vitamin mineral supplements, foods, pharmaceutical and cosmetics” (priority 2017, dated 2024)", "key": {"[1]": {"experiment": "Decay of sodium ascorbate in HEPES pH 7.2 with 63 μM cupric sulfate", "type": "physicochemical", "experimental": "Example 11 The effect of 1,1,1-Ala-Asp-Asp on the decay of sodium ascorbate in 10 mM HEPES pH 7.2 at 37 was compared with 1,1,1-triaspartate in the presence of 63 μM cupric sulfate (equivalent to 2 mg of elemental copper per 500 mL). […] This difference is somewhat offset by the ˜12% lower molecular weight of the former."}, "[2]": {"experiment": "USP type 2 dissolution of Product #1a with peptide in the medium", "conditions": "for ascorbic acid recovered / maintained (in words): 0.25 mM, 45 min", "experimental": "(§1) The dissolution studies described herein used a U.S. Pharmacopeia (USP) type 2 apparatus with 500 ml distilled H2O at 37° C. stirred at 50 RPM. […] Oxygen concentration was monitored with a Clarke electrode calibrated against argon and air sparged water at 37 C. The disappearance of several components was gauged against a mixture of pure standards of known concentration.\nProduct #1a also contained caffeine."}, "[3]": {"experiment": "Effect of cupric sulfate on folic acid plus sodium ascorbate in various buffers", "conditions": "for initial ascorbate lost after 2 hours: 10 mM HEPES pH 7.2, 150 μM cupric sulfate", "experimental": "(§2) Aqueous solutions of air saturated buffer, peptide, one or more vitamins, and metal salt (e.g. ferrous chloride or cupric sulfate) were combined and incubated at 37 C, unless otherwise stated. Samples were injected into the HPLC system as a function of time and monitored by a photodiode array detector.\nReactions were continuously but slow sparged with air so that oxygen would not become limiting."}, "[4]": {"experiment": "Decomposition of 5-MTHF in 1 mM HCl with cupric sulfate", "type": "physicochemical", "conditions": "3 mM peptide, 150 μM cupric sulfate, 37 C", "experimental": "The decomposition of 5-MTHF is slower in acidic solutions than at neutral pH, and this was found even in the presence of cupric ions. […] With 3 mM 1,1,1-triaspartic free acid also present the time to half decomposition was increased to around 30 minutes."}, "[5]": {"experiment": "USP type 2 dissolution of Product #1b with copper added as CuSO4 and peptide", "type": "physicochemical", "experimental": "as §1"}, "[6]": {"experiment": "Decay of 5-MTHF in HEPES pH 7.2 with cupric sulfate and peptide", "type": "physicochemical", "conditions": "for half-life of 5-MTHF: 150 μM cupric sulfate", "experimental": "as §2"}, "[7]": {"experiment": "Effect of cupric sulfate on vitamin B12, thiamine, folic acid and sodium ascorbate in MES pH 6.2", "type": "physicochemical", "conditions": "3 mM peptide; 10 mM MES pH 6.2, 150 μM cupric sulfate", "experimental": "In the presence of 3 mM 1,1,1-triaspartate (as the tetra-sodium salt) the loss of Vitamin B12 was limited to about 20% even after 2 hours. Thiamine also rapidly disappeared by 40% over the first 26 minutes and then remained constant in the absence of an aspartate peptide. However, with 3 mM Asp-Asp-Asp included only 8% was lost at 36 min."}, "[8]": {"conditions": "product #2; 1 mM peptide", "experimental": "as §1"}, "[9]": {"conditions": "3 mM peptide, 3 mM ferrous chloride, 40 mM MES pH 6.2", "experimental": "as §2"}, "[10]": {"experiment": "Water uptake and handling of peptide salts on exposure to atmosphere or humidity", "type": "physicochemical", "conditions": "for handling state after exposure to the atmosphere / weight gain (water) when left open to the atmosphere: ambient", "experimental": "One such matrix is microcrystalline cellulose which is commonly used as an excipient in vitamin and mineral products. A method of combining the peptide salt with the excipient was also developed in which the former is dissolved in a suitable solvent, for example water, the excipient added with stirring, and removing the solvent from the mixture, for example by rotary evaporation under reduced pressure or lyophilization.\nThe resulting material was crushed to pass through a 200 mesh sieve.\nThe precipitate was resuspended in 0.5 ml ice-cold water, centrifuged again, and the second supernate discarded.\nThe precipitate was resuspended in 0.5 ml ice-cold water, recentrifuged, and the second supernate discarded. […] This was centrifuged and dried under high vacuum over P2O5."}, "[11]": {"conditions": "3 mM peptide, 50 mM MES pH 5.5, 150 μM cupric sulfate"}, "[12]": {"conditions": "2 mM peptide, 25 μM 5-MTHF, 10 mM HEPES pH 7.2, 37 C"}}, "note": "No end group written: not given here."}
{"compound": "1,1,1-Ala-Asp-Asp", "values": [{"measurement": "effectiveness compared with triaspartic acid on a molar basis", "setting": "[1]", "result": "about half as effective"}, {"measurement": "1st-order rate of ascorbate loss compared with Asp-Asp-Asp", "setting": "[1]; 0.25 mM peptide, 63 μM cupric sulfate, 10 mM HEPES pH 7.2, 37", "result": "almost twice as fast"}]}
{"compound": "N[C@@H](CC(=O)O)C(=O)O", "note": "[aspartic acid, reference compound]", "values": [{"measurement": "rate of oxygen consumption compared with no peptide", "setting": "[2]; Product #1a, 0.25 mM peptide", "result": "no improvement"}, {"measurement": "ascorbic acid recovered / maintained (in words)", "setting": "[2]; Product #1a", "result": "no improvement"}]}
{"compound": "Asp-Asp-Asp", "values": [{"measurement": "folic acid recovered after 82 minutes", "setting": "[3]; [11]", "result": "more than 50%"}, {"measurement": "time until ascorbate completely consumed", "setting": "[3]; [11]", "result": 47, "unit": "min"}, {"measurement": "time to half decomposition of 5-MTHF", "setting": "[4]", "result": "around 30 minutes"}, {"measurement": "concentration required for half maximal effect in preventing loss of ascorbate", "setting": "[5]; 1 mg of copper added as CuSO4, compared with 2 mg", "result": "somewhat lower concentration"}, {"measurement": "EC50", "setting": "[5]; copper added as CuSO4, peptide 0.05 to 0.5 mM, hyperbolic fit, read-out: concentration required for 50% of maximal effectiveness in preventing ascorbate loss", "result": "~50", "unit": "µM"}, {"measurement": "half-life of 5-MTHF (in words)", "setting": "[6]; 0.5 mM peptide", "result": "longer than Asp2"}, {"measurement": "thiamine lost at 36 min", "setting": "[7]", "result": 8, "unit": "%"}, {"measurement": "extent of caffeine oxidation to 1,3,7-trimethyluric acid compared with no peptide", "setting": "[2]; Product #1a, 0.25 mM peptide", "result": "more than halved"}, {"measurement": "folic acid in filtrate, of the labeled amount, 10 minute sample", "setting": "[2]; Product #1a, 0.25 mM peptide", "result": "about 55%"}, {"measurement": "folic acid in filtrate, of the labeled amount, 45 minute sample", "setting": "[2]; Product #1a, 0.25 mM peptide", "result": "about 70%"}, {"measurement": "p-aminobenzoyl-glutamate in the final sonicated sample compared with absence of peptide", "setting": "[2]; Product #1a, 0.25 mM peptide", "result": "decreased to half"}, {"measurement": "thiamine present at 45 minutes, of labeled content", "setting": "[2]; Product #1a, 0.25 mM peptide", "result": 104, "unit": "%"}, {"measurement": "thiamine present at 45 minutes, of the actual content of the tablets", "setting": "[2]; Product #1a, 0.25 mM peptide", "result": 83, "unit": "%"}]}
{"compound": "Asp-Asp-Asp tetrasodium salt [tetra-sodium 1,1,1-triaspartate, Tetra-sodium-1,1,1-triaspartate]", "values": [{"measurement": "initial ascorbate lost after 2 hours", "setting": "[3]; 1 mM peptide", "result": 33, "unit": "%"}, {"measurement": "initial ascorbate lost after 2 hours", "setting": "[3]; 3 mM peptide", "result": 18, "unit": "%"}, {"measurement": "ascorbate remaining by 32 minutes", "setting": "[3]; 3 mM peptide, 10 mM MES pH 6.2, 150 μM cupric sulfate, air sparged", "result": 35, "unit": "%"}, {"measurement": "increase of average recovery of ascorbic acid at 45 minutes over no peptide", "setting": "[8]", "result": 16, "unit": "%"}, {"measurement": "increase of average recovery of thiamine at 45 minutes over no added peptide", "setting": "[8]", "result": 20, "unit": "%"}, {"measurement": "time without significant loss of 5-MTHF", "setting": "[9]", "result": "about 50 minutes"}, {"measurement": "decrease of 5-MTHF thereafter", "setting": "[9]; after about 50 minutes", "result": "about 17 % per hour"}, {"measurement": "handling state after exposure to the atmosphere", "setting": "[10]; open to the atmosphere", "result": "became sticky"}, {"measurement": "weight gain (water) when left open to the atmosphere", "setting": "[10]; open to the atmosphere", "result": 14, "unit": "%"}, {"measurement": "half-life of 5-MTHF", "setting": "[6]; [12]", "result": 3.3, "unit": "h"}, {"measurement": "loss of Vitamin B12 after 2 hours", "setting": "[7]", "result": "about 20%"}, {"measurement": "ascorbic acid recovered after 45 min, higher than with water only", "setting": "[2]; Product #1a, 0.125 mmole peptide in 500 mL (0.25 mM), initial pH ~6.5, 37° C.", "result": "about 16 fold"}, {"measurement": "oxygen remaining after 45 min, part of the original concentration", "setting": "[2]; Product #1a, 0.25 mM peptide", "result": "about a third"}, {"measurement": "rate of oxygen consumption compared with no peptide", "setting": "[2]; Product #1a, 0.25 mM peptide", "result": "dramatically decreased"}]}
{"compound": "Calcium1.5-1,1,1-triaspartate [Example D]", "values": [{"measurement": "handling state after 24 hours at 90% RH", "setting": "[10]; 90% RH, 24 hours", "result": "clumped slightly, but was easy to break up and was not sticky"}, {"measurement": "handling state after exposure to the atmosphere", "setting": "[10]; open to the atmosphere", "result": "remained free flowing flakes that were never sticky"}, {"measurement": "weight gain (water) when left open to the atmosphere", "setting": "[10]; open to the atmosphere", "result": "~10", "unit": "%"}]}
{"compound": "Ferrous 1,1,1-triaspartate [Example P]", "values": [{"measurement": "color / oxidation when open to air via a drying tube", "setting": "[10]; open to air via a drying tube", "result": "did not change color or significantly oxidize"}, {"measurement": "weight gain (water) when left open to the atmosphere", "setting": "[10]; open to the atmosphere", "result": 13, "unit": "%"}, {"measurement": "color / oxidation when kept open to the atmosphere", "setting": "[10]; open to the atmosphere, several days", "result": "became dark brown due to partial oxidation to iron(III)"}]}
{"compound": "N-acetyl-1,1,1-triaspartic acid [reference compound]", "values": [{"measurement": "ability to inhibit oxidative destruction of other multivitamin components", "setting": "[2]; test conditions not stated", "result": "lack of effectiveness"}]}
{"compound": "penta-sodium 1,1,1,1-tetraaspartate (DDDD; also: penta-sodium salt)", "values": [{"measurement": "effectiveness compared with triaspartic acid on a molar basis", "setting": "[6]", "result": "just as effective on a molar basis"}, {"measurement": "half-life of 5-MTHF", "setting": "[6]; [12]", "result": 2.97, "unit": "h"}]}
{"compound": "tri-sodium 1,1,1-His-Asp-Asp [reference compound]", "values": [{"measurement": "maintenance of ascorbate or thiamine, diminishing oxygen consumption, or oxidation of other components", "setting": "[2]; Product #1a, 0.25 mM peptide, pH ~6.5", "result": "No improvement"}]}
{"compound": "tri-sodium 1,1-diaspartate", "values": [{"measurement": "half-life of 5-MTHF", "setting": "[6]; [12]", "result": 1.2, "unit": "h"}, {"measurement": "half-life of 5-MTHF", "setting": "[6]; 3 mM peptide, HEPES pH 7.2, 37 C", "result": 1.45, "unit": "h"}, {"measurement": "half-life of 5-MTHF", "setting": "[6]; 4 mM peptide, HEPES pH 7.2, 37 C", "result": 1.67, "unit": "h"}, {"measurement": "profile of folic acid appearance in solution", "setting": "[2]; Product #1a, 0.25 mM peptide", "result": "greater than without any peptide, and similar to that liberated by 0.05 mM Asp-Asp-Asp"}, {"measurement": "profile of p-aminobenzoyl-glutamate formation", "setting": "[2]; Product #1a, 0.25 mM peptide", "result": "suppressed in comparison to without any peptide, and similar to 0.05 mM Asp-Asp-Asp"}, {"measurement": "profile of thiamine appearance in solution", "setting": "[2]; Product #1a, 0.25 mM peptide", "result": "not significantly different than without peptide"}, {"measurement": "rate of oxygen consumption compared with no peptide", "setting": "[2]; Product #1a, 0.25 mM peptide", "result": "less than without a peptide"}, {"measurement": "ascorbic acid recovered / maintained (in words)", "setting": "[2]; Product #1a", "result": "greater than with no Asp2 but somewhat less than in the presence of 0.25 mM Asp-Asp-Asp"}]}
